Tested on: mouse psoriasis model induced by 5% IMQ
Assay: mRNA level of related inflammatory factors (qPCR) at lesion of mouse psoriasis model
Assay type: in vivo
Conditions: 5% IMQ model
Experimental: 20 mg of skin tissues were grinded to powder with liquid nitrogen, added with 0.5 mL of Trizol (Vazyme, article number: R401-01), and incubated on ice for 10 minutes. A split product was transferred to a 1.5 mL RNase-free centrifuge tube, added with 100 μL of chloroform, then shaken vigorously for 15 seconds, stood on ice for 2 minutes, and then centrifuged at 4° C. at 12000 rpm for 10 minutes. A water phase on an upper layer was absorbed into a new 1.5 mL RNase-free centrifuge tube, added with the same amount of isopropanol to precipitate RNA, and then centrifuged at 4° C. at 12000 rpm for 10 minutes. A supernatant was discarded, 500 μL of 75% ethyl alcohol prepared with DEPC water was added to wash the RNA precipitate, and then centrifuged at 4° C. at 12000 rpm for 5 minutes. A supernatant was discarded, the RNA precipitate was slightly dried, and the RNA was dissolved with 10 μL of DEPC water. 1 μL of the mixture was subjected to concentration detection by a detection instrument which was Nano-100 ultra-micro spectrophotometer (Hangzhou Aosheng Instrument Co., Ltd., article number: AS-11010). Another 500 ng of the RNA was subjected to a reverse transcription reaction, which was operated according to instructions of HiScript® II One Step RT-PCR Kit (Vazyme, article number: P611-01). A reverse transcription product was stored at −20° C. for later use. […]

O=c1cc(-c2ccc(O)cc2)oc2cc(O)c(O)c(O)c12 [Scutellarein]
transcription (mRNA level) of the related inflammatory factors: obviously reduce
